Test results as given in patent US20260337656A1, “METHODS OF SYNTHESIZING PEPTIDES WITH FREE N-TERMINAL CYSTEINE AND PRODUCTS THEREOF” (OHIO STATE INNOVATION FOUNDATION, priority 2022, published 2026).
No end group written: not given here.

Columns and labels:
[1] = molecular target: T1, A. sobria ProAP (Aeromonas sobria, UniProt P46547); assay: ProAP activity assay (kinetic constants of A. sobria ProAP against selected peptide substrates); type: biochemical; conditions: role: substrate; for kcat/KM: PBS pH 7.4, 2 mM DTT, 0-500 μM peptide, 0.5-25 nM ProAP, mean ± SD of three independent sets of experiments; for change in catalytic activity on replacement of His at P3′ with Gly or Ser: peptides 1 and 9 or peptides 3 and 6 compared; for decrease in catalytic activity on substitution of Ala for Gly at P2′: peptide 6 compared with 9, peptide 10 compared with 8
Method: A typical assay reaction (total volume of 100 μL) contained PBS (10 mM Na2HPO4, 1.8 mM KH2PO4, 137 mM NaCl, 2.7 mM KCl, 2 mM DTT pH 7.4) and 0-500 μM peptide substrate. The reaction was initiated by the addition of ProAP (final concentration of 0.5-25 nM) and quenched after 5-30 min by the addition of 100 μL of 10% TFA. The reaction mixture was centrifuged at 15,000 rpm in a microcentrifuge for 5 min, and the clear supernatant was analyzed on a Waters Acquity UPLC-MS equipped with a BEH C18 column (1.7 μm, 2.1 mm I.D., 100 mm length). The column was eluted with a linear gradient of acetonitrile (0-25% over 8 min) in water containing 0.05% TFA. The percentage of substrate-to-product conversion was determined by comparing the peak areas of the remaining substrate and the reaction product (monitored at 280 nm) and kept at ≤20%. The initial rates were calculated from the conversion percentages and plotted versus [S]. Data fitting against the Michaelis-Menten equation V=Vmax[S]/(KM+[S]) or the simplified equation V=kcat[E][S]/KM (when KM>>[S]) gave the kinetic constants kcat, KM, and/or kcat/KM.
To confirm the screening results, we individually synthesized a panel of peptides and determined their kinetic properties toward A. sobria ProAP (Table 1). Peptides 1-6 are representative (preferred) sequences selected from the library, while peptide 7 is the consensus sequence based on the screening results. Peptide 8 is a variant of peptide 7, containing a proline (instead of a lysine) at the P5′ position. We anticipated that a proline residue at this position would improve the proteolytic stability of the peptide. Peptide 9 is a variant of peptide 6 (substitution of Gly for Ala at the P2′ position) and was designed to test the importance of a Gly residue at the P2′ position. Peptide 10 is also a variant of peptide 6 but contains a Pro at position P5′ (in place of Lys) to impart proteolytic stability. Peptide 11 is derived from a colorless bead during library screening (Table C) and expected to be a poor substrate of ProAP (“negative” control). All peptides contained a Tyr at the P6′ position, to facilitate concentration measurement as well as monitoring the enzymatic reactions by UPLC (at 280 nm).

[2] = molecular target: T1, A. sobria ProAP; assay: Proline removal from peptide 8 by ProAP before N-terminal labeling (UPLC-MS); type: biochemical
Method: Peptide (100 μM) was incubated with ProAP (4 μM) in 20 mM Tris, pH 8.5, 100 mM NaCl for 1 h at 37° C. One half of the reaction (40 μL) was set aside for later UPLC-MS analysis, while the other half was mixed with 40 μL of FAM-CO-SR (400 μM), sodium 2-mercaptoethanesulfonate (2 mM), and TCEP (2.5 mM) in PBS (H 7.5). The mixture was incubated at room temperature for 5 h and analyzed by UPLC-MS.
We first tested the feasibility of generating an N-terminal cysteine by ProAP and specific N-terminal conjugation with a peptide as substrate. […] The reaction mixture was next treated with an excess of fluorescein 2-mercaptoethanesulfonate thioester (FAM-CO-SR; 4 equivalents) in the presence of 2-mercaptoethanesulfonate (2-MES) and TCEP in a phosphate buffer (pH 7.5).

T1 sequence (P46547 whole entry, added parts left off): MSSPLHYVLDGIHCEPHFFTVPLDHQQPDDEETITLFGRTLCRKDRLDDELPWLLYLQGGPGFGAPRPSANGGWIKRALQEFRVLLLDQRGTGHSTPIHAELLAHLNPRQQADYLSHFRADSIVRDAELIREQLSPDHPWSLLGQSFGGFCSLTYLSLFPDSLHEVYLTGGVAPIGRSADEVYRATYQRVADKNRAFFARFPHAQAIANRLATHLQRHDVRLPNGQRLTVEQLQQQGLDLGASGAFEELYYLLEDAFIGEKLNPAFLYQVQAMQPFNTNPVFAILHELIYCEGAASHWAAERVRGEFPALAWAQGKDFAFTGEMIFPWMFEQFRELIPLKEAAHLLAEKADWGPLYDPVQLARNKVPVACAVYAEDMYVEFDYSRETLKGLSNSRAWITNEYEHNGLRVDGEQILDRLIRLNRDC

PCGGKAY-NH2 [Peptide 1, PCGGKAY]
kcat/KM [1]: 7.0 ± 1.2 ×10^5 M^−1 s^−1
change in catalytic activity on replacement of His at P3′ with Gly or Ser [1]: ≤ 1.3 fold

PCGSSKY-NH2 [Peptide 2, PCGSSKY]
kcat/KM [1]: 5.8 ± 1.0 ×10^5 M^−1 s^−1

PCGHKKY-NH2 [Peptide 7, PCGHKKY]
kcat/KM [1]: 8.2 ± 0.7 ×10^5 M^−1 s^−1

PCASKAY-NH2 [Peptide 3, PCASKAY]
kcat/KM [1]: 3.8 ± 0.4 ×10^5 M^−1 s^−1
change in catalytic activity on replacement of His at P3′ with Gly or Ser [1]: ≤ 1.3 fold

PCSHKGY-NH2 [Peptide 4, PCSHKGY]
kcat/KM [1]: 3.2 ± 0.1 ×10^5 M^−1 s^−1

O=C(O)CCP(CCC(=O)O)CCC(=O)O [TCEP, tris(carboxyethyl)phosphine, reference compound]
inhibition of A. sobria ProAP activity ([2]; role: inhibitor): strongly inhibits

PCAHKPY-NH2 [Peptide 10, PCAHKPY]
kcat/KM [1]: 2.8 ± 0.8 ×10^5 M^−1 s^−1
decrease in catalytic activity on substitution of Ala for Gly at P2′ [1]: 2- to 3 fold

PCHDETY-NH2 [Peptide 11, PCHDETY]
kcat/KM [1]: 0.038 ± 0.010 ×10^5 M^−1 s^−1
less active than peptides 1-10 ([1]; negative control compared with peptides 1-10): ~ 2 orders of magnitude

PCAHKAY-NH2 [Peptide 6, PCAHKAY]
decrease in catalytic activity on substitution of Ala for Gly at P2′ [1]: 2- to 3 fold

PCGHKPY-NH2 [Peptide 8, PCGHKPY]
kcat/KM [1]: 8.3 ± 3.2 ×10^5 M^−1 s^−1
disappearance of peptide on treatment with ProAP ([2]; role: substrate, 100 μM peptide, 4 μM ProAP, 60 min): complete disappearance

PCGHKAY-NH2 [Peptide 9, PCGHKAY]
kcat/KM [1]: 7.2 ± 2.6 ×10^5 M^−1 s^−1

PCEFTRY-NH2 [Peptide 5, PCEFTRY]
kcat/KM [1]: 3.2 ± 0.9 ×10^5 M^−1 s^−1
